Data reported in patent publication US20070243222A1, “FUNGICIDAL FORMULATION AND METHOD OF USE” (priority 2006, published 2007).

Legend:
onychomycosis [1] = details: topical nail lacquer once daily, mild to moderate onychomycosis; combined results of two randomized, controlled trials; cited from earlier work
onychomycosis [2] = details: standard oral treatment; survey Arch Dermatol 134(12):1551-1554, 1998; cited from earlier work
Trichophyton rubrum = assay: inhibition of propagation of Trichophyton rubrum; format: cell-based; details: acting alone or in combination
Description: An additional iron chelating agent, useful in the present invention, is an iron-chelating agent consisting of ciclopirox in conjunction with a light-blocking agent. Particularly, preferred iron chelating agents useful in the present invention are zinc pyrithione and Chelex-100. Pyrithione is 2-pyridinethiol-1-oxide and is a “bidentate ligand” that has the capacity to complex with metals other than zinc, such as iron. Chelex-100 is a styrene divinylbenzene copolymer containing paired iminodiacetate ions, which act as chelating groups for binding polyvalent metal ions.

Cc1cc(C2CCCCC2)n(O)c(=O)c1 [ciclopirox]
complete resolution, share of treated patients (onychomycosis [1]): approximately 7%

CN(C/C=C/C#CC(C)(C)C)Cc1cccc2ccccc12 [terbinafine]
disease-free nails, share of cases (onychomycosis [2]): 35-50%

zinc pyrithione
inhibitory effect on the propagation of Trichophyton rubrum (Trichophyton rubrum): potent inhibitory effect
